Data taken from patent publication US9228009B2, “Multi-hierarchical self-assembly of a collagen mimetic peptide” (WILLIAM MARSH RICE UNIVERSITY, priority 2011, dated 2016).
Non-standard residues stand in square brackets, D forms with d. Residues, ends and D or L forms follow the SMILES beside them. Hyp = O=C(O)[C@@H]1C[C@@H](O)CN1

Columns and labels:
collagenase type IV = test: Collagenase degradation study of hydrogels; type: in vitro ADME; details: for hydrogel degradation state: w/ collagenase
Procedure: (§1) As a simple functional test of the collagen hydrogel mimetic, we compared its ability to be broken down by collagenase (type IV, Invitrogen) the primary component of which is MMP2, a protease known to specifically cleave between the X and Gly residues of an X-Y-Gly repeat found in a triple helix.^42 (Pro-Lys-Gly)4(Pro-Hyp-Gly)4(Asp-Hyp-Gly)4 hydrogels were prepared at a concentration of 2.0% by weight in phosphate buffer and treated with either collagenase in HBSS (Hank's Balanced Salt Solution) or HBSS alone. The samples were allowed to incubate at room temperature (approximately 20° C.), 30° C. and 37° C. Hydrogels of rat-tail collagen were prepared in the same fashion with and without collagenase.
(§2) Using the previously described gelation procedure, gels of (Pro-Lys-Gly)4(Pro-Hyp-Gly)4(Asp-Hyp-Gly)4 were prepared at a concentration of 2.0% by weight in 10 mM phosphate buffer. Directly after annealing, 100 μl of solution was pipetted into two wells of a 96-well cell culture plate and allowed to incubate at room temperature overnight. A 0.3% by weight collagenase type IV solution was prepared by dissolving 15.0 mg of non-sterile lyophilized enzyme into 5 ml of Hank's Balanced Salt Solution (HBSS). The solution was then filter sterilized using a 0.2 μm filter attached to a syringe. Enzyme and buffer were from Invitrogen (Carlsbad, Calif.). After gelation was complete, 150 μl of collagenase was added on top of one well and 150 μL of HBSS was added on the other serving as a control. Three plates were prepared and incubated at room temperature (about 20° C.), 30° C. and 37° C. Each condition was observed and imaged at 0, 1, 4, 6, 12, 24 and 48 hours after addition of the collagenase or HBSS. Plates containing rat-tail collagen gels at a concentration of 3.0% by weight were prepared and analyzed in an identical manner. Table 1 and Table 2 below show collagenase mediated degradation of (Pro-Lys-Gly)4(Pro-Hyp-Gly)4(Asp-Hyp-Gly)4 and rat-tail collagen hydrogels, respectively. Samples were tested at room temperature (approximately 20° C., 30° C. and 37° C.) with and without collagenase. […] Control samples of (Pro-Lys-Gly)4(Pro-Hyp-Gly)4(Asp-Hyp-Gly)4 at room temperature and 30° C. were intact after 48 hours. However at 37° C. the hydrogels dissolved after 24 hours due to the proximity of this temperature to the triple helices melting temperature.

[1] = Hydrogel control in HBSS without collagenase; type: physicochemical; details: no collagenase (HBSS), 2.0% by weight gel
Procedure: as §1, §2

[2] = Circular dichroism thermal unfolding; type: physicochemical
Procedure: All peptide concentrations were measured by weight. All samples were adjusted to pH 7 with sodium hydroxide prior to the addition of buffer and then annealed for 15 minutes at 85° C. Lastly, the samples were incubated at room temperature for at least 12 hours prior to characterization to ensure complete assembly. Time course rheological studies are given in FIG. 13 to support this time scale.
All spectra and thermal unfolding studies were performed on a Jasco J-810 spectropolarimeter equipped with a Peltier temperature control system. Quartz cells were used with pathlengths of 0.01 cm and 0.1 cm depending on the peptide concentration and buffer. Spectra were collected from 190-250 nm. Melting experiments were performed from 5 to 85° C., monitoring at 225 nm, and the first derivative of the thermal unfolding curve was taken in order to determine the melting temperature of the sample. The molar residual ellipticity (MRE) is calculated from the measured ellipticity using the equation:
[formula] where θ is the ellipticity in mdeg, m is the molecular weight in g/mol, c is the concentration in mg/ml, l is the pathlength of the cuvette in cm, and nr is the number of amino acids in the peptide. The spectrum for 1.0% by weight is only shown from 250-205 nm due to the increase in background noise for higher concentration samples at lower wavelengths.

[3] = room temperature (approximately 20° C.)

NCCCC[C@H](NC(=O)[C@@H]1CCCN1)C(=O)NCC(=O)N1CCC[C@H]1C(=O)N[C@@H](CCCCN)C(=O)NCC(=O)N1CCC[C@H]1C(=O)N[C@@H](CCCCN)C(=O)NCC(=O)N1CCC[C@H]1C(=O)N[C@@H](CCCCN)C(=O)NCC(=O)N1CCC[C@H]1C(=O)N1C[C@H](O)C[C@H]1C(=O)NCC(=O)N1CCC[C@H]1C(=O)N1C[C@H](O)C[C@H]1C(=O)NCC(=O)N1CCC[C@H]1C(=O)N1C[C@H](O)C[C@H]1C(=O)NCC(=O)N1CCC[C@H]1C(=O)N1C[C@H](O)C[C@H]1C(=O)NCC(=O)N[C@@H](CC(=O)O)C(=O)N1C[C@H](O)C[C@H]1C(=O)NCC(=O)N[C@@H](CC(=O)O)C(=O)N1C[C@H](O)C[C@H]1C(=O)NCC(=O)N[C@@H](CC(=O)O)C(=O)N1C[C@H](O)C[C@H]1C(=O)NCC(=O)N[C@@H](CC(=O)O)C(=O)N1C[C@H](O)C[C@H]1C(=O)NCC(=O)O [(Pro-Lys-Gly)4(Pro-Hyp-Gly)4(Asp-Hyp-Gly)4] (H-PKGPKGPKGPKGP[Hyp]GP[Hyp]GP[Hyp]GP[Hyp]GD[Hyp]GD[Hyp]GD[Hyp]GD[Hyp]G-OH; N-terminus assumed)
intact: hydrogel degradation state (collagenase type IV; 20° C., 0 h, 2.0% by weight gel) | hydrogel degradation state (collagenase type IV; 20° C., 1 h, 2.0% by weight gel) | hydrogel degradation state (collagenase type IV; 30° C., 0 h, 2.0% by weight gel) | hydrogel degradation state (collagenase type IV; 30° C., 1 h, 2.0% by weight gel) | hydrogel degradation state (collagenase type IV; 37° C., 0 h, 2.0% by weight gel) | hydrogel degradation state ([1]; 20° C., 0 h) | hydrogel degradation state ([1]; 20° C., 1 h) | hydrogel degradation state ([1]; 20° C., 4 h) | hydrogel degradation state ([1]; 20° C., 6 h) | hydrogel degradation state ([1]; 20° C., 12 h) | hydrogel degradation state ([1]; 20° C., 24 h) | hydrogel degradation state ([1]; 20° C., 48 h) | hydrogel degradation state ([1]; 30° C., 0 h) | hydrogel degradation state ([1]; 30° C., 1 h) | hydrogel degradation state ([1]; 30° C., 4 h) | hydrogel degradation state ([1]; 30° C., 6 h) | hydrogel degradation state ([1]; 30° C., 12 h) | hydrogel degradation state ([1]; 30° C., 24 h) | hydrogel degradation state ([1]; 30° C., 48 h) | hydrogel degradation state ([1]; 37° C., 0 h) | hydrogel degradation state ([1]; 37° C., 1 h) | hydrogel degradation state ([1]; 37° C., 4 h) | hydrogel degradation state ([1]; 37° C., 6 h) | hydrogel degradation state ([1]; 37° C., 12 h)
40-41 °C: triple helix melting temperature ([2]; 10 mM phosphate buffer, pH 7, first derivative of CD unfolding curve at 225 nm) | melting transition ([2]; gel-forming samples in additional buffers (water, Tris, PBS), pH 7)
dissolved: hydrogel degradation state (collagenase type IV; 20° C., 4 h, 2.0% by weight gel) | hydrogel degradation state (collagenase type IV; 20° C., 6 h, 2.0% by weight gel) | hydrogel degradation state (collagenase type IV; 20° C., 12 h, 2.0% by weight gel) | hydrogel degradation state (collagenase type IV; 20° C., 24 h, 2.0% by weight gel) | hydrogel degradation state (collagenase type IV; 20° C., 48 h, 2.0% by weight gel) | hydrogel degradation state (collagenase type IV; 30° C., 4 h, 2.0% by weight gel) | hydrogel degradation state (collagenase type IV; 30° C., 6 h, 2.0% by weight gel) | hydrogel degradation state (collagenase type IV; 30° C., 12 h, 2.0% by weight gel) | hydrogel degradation state (collagenase type IV; 30° C., 24 h, 2.0% by weight gel) | hydrogel degradation state (collagenase type IV; 30° C., 48 h, 2.0% by weight gel) | hydrogel degradation state (collagenase type IV; 37° C., 1 h, 2.0% by weight gel) | hydrogel degradation state (collagenase type IV; 37° C., 4 h, 2.0% by weight gel) | hydrogel degradation state (collagenase type IV; 37° C., 6 h, 2.0% by weight gel) | hydrogel degradation state (collagenase type IV; 37° C., 12 h, 2.0% by weight gel) | hydrogel degradation state (collagenase type IV; 37° C., 24 h, 2.0% by weight gel) | hydrogel degradation state (collagenase type IV; 37° C., 48 h, 2.0% by weight gel) | hydrogel degradation state ([1]; 37° C., 24 h) | hydrogel degradation state ([1]; 37° C., 48 h)
4 h: time after which hydrogel treated with collagenase was fully dissolved (collagenase type IV; 30° C.) | time after which hydrogel treated with collagenase was fully dissolved (collagenase type IV; [3])
1 h: time after which hydrogel treated with collagenase was fully dissolved (collagenase type IV; 37° C.)
around 23 °C: melting temperature ([2]; samples that did not form gels in additional buffers (water, Tris, PBS), pH 7)
41 °C: triple helix cooperative transition (melting) temperature ([2]; 1.0% by weight in phosphate)

Rat-tail Collagen: collagen type I harvested from rat-tail tendon; hydrogels at 3.0% by weight used as comparator [reference compound]
intact: hydrogel degradation state (collagenase type IV; 20° C., 0 h, 3.0% by weight gel) | hydrogel degradation state (collagenase type IV; 20° C., 1 h, 3.0% by weight gel) | hydrogel degradation state (collagenase type IV; 30° C., 0 h, 3.0% by weight gel) | hydrogel degradation state (collagenase type IV; 30° C., 1 h, 3.0% by weight gel) | hydrogel degradation state (collagenase type IV; 37° C., 0 h, 3.0% by weight gel)
4 h: time after which hydrogel treated with collagenase was fully dissolved (collagenase type IV; 30° C.) | time after which hydrogel treated with collagenase was fully dissolved (collagenase type IV; [3])
1 h: time after which hydrogel treated with collagenase was fully dissolved (collagenase type IV; 37° C.)
dissolved: hydrogel degradation state (collagenase type IV; 20° C., 4 h, 3.0% by weight gel) | hydrogel degradation state (collagenase type IV; 20° C., 6 h, 3.0% by weight gel) | hydrogel degradation state (collagenase type IV; 20° C., 12 h, 3.0% by weight gel) | hydrogel degradation state (collagenase type IV; 20° C., 24 h, 3.0% by weight gel) | hydrogel degradation state (collagenase type IV; 20° C., 48 h, 3.0% by weight gel) | hydrogel degradation state (collagenase type IV; 30° C., 4 h, 3.0% by weight gel) | hydrogel degradation state (collagenase type IV; 30° C., 6 h, 3.0% by weight gel) | hydrogel degradation state (collagenase type IV; 30° C., 12 h, 3.0% by weight gel) | hydrogel degradation state (collagenase type IV; 30° C., 24 h, 3.0% by weight gel) | hydrogel degradation state (collagenase type IV; 30° C., 48 h, 3.0% by weight gel) | hydrogel degradation state (collagenase type IV; 37° C., 1 h, 3.0% by weight gel) | hydrogel degradation state (collagenase type IV; 37° C., 4 h, 3.0% by weight gel) | hydrogel degradation state (collagenase type IV; 37° C., 6 h, 3.0% by weight gel) | hydrogel degradation state (collagenase type IV; 37° C., 12 h, 3.0% by weight gel) | hydrogel degradation state (collagenase type IV; 37° C., 24 h, 3.0% by weight gel) | hydrogel degradation state (collagenase type IV; 37° C., 48 h, 3.0% by weight gel)
